Earlier results as cited in patent publication EP1147767A1 (J.B. Chemicals & Pharmaceuticals Ltd., priority 2000, dated 2001).

Key:
[1] = rats; comparison with other drugs
[2] = animal model; comparison with other NSAIDs
[3] = 200 mg/day; respiratory tract infections, ENT disorders, dysmenorrhoea, dental surgery, urogenital tract disorders, musculoskeletal injuries
[4] = 200mg 3 times daily, rectally; Ramella et al. 1993
[5] = 200 mg twice daily, rectally; Coscarelli et al. 1993
[6] = 200 mg twice daily; Pierleoni et al. 1993
[7] = 200 mg twice daily, granular formulation; versus naproxen 500 mg twice daily; Toscani et al. 1993

CS(=O)(=O)Nc1ccc([N+](=O)[O-])cc1Oc1ccccc1 [Nimesulide, 4'-Nitro-2'-phenoxymethanesulphonanilide]
antipyretic potency [1]: superior antipyretic potency to indomethacin, ibuprofen, aspirin and paracetamol
ulcerogenic [2]: less ulcerogenic than aspirin, indomethacin, naproxen, piroxicam and ibuprofen
reducing clinical symptoms [3]: generally more effective than the usual therapeutic doses of naproxen, ibuprofen, ketoprofen mefenamic acid and suprofen
adverse reaction [4]: no adverse reaction
pain, oedema, hyperaemia and fever [4]: significantly less pain, oedema and hyperaemia and resolution of mild fever
relief of pain [5]: gave relief in the pain associated with postoperative inflammatory complications of ear, nose and throat surgery
relief [6]: gave relief
analgesic efficacy (pain) [7]: similarly reduced pain with naproxen 500 mg twice daily
